Experimental data published in ChEMBL document CHEMBL1201862, “PubChem BioAssay data set” (2004).
Activity calls are given as the source filed them. No stated cut-off is given here; in the data, actives have a measured IC50 and inactives only a lower limit.

Biological target: Envelope glycoprotein gp160 (Human immunodeficiency virus 1, UniProt Q6QLK5)
Assay: cell-free HIV fusion peptide-binding blockers – biochemical, uHTS, fluorescence dequenching, […] (AID 1986)

Sequence of Envelope glycoprotein gp160 (Q6QLK5 whole entry, the tested form may be a part): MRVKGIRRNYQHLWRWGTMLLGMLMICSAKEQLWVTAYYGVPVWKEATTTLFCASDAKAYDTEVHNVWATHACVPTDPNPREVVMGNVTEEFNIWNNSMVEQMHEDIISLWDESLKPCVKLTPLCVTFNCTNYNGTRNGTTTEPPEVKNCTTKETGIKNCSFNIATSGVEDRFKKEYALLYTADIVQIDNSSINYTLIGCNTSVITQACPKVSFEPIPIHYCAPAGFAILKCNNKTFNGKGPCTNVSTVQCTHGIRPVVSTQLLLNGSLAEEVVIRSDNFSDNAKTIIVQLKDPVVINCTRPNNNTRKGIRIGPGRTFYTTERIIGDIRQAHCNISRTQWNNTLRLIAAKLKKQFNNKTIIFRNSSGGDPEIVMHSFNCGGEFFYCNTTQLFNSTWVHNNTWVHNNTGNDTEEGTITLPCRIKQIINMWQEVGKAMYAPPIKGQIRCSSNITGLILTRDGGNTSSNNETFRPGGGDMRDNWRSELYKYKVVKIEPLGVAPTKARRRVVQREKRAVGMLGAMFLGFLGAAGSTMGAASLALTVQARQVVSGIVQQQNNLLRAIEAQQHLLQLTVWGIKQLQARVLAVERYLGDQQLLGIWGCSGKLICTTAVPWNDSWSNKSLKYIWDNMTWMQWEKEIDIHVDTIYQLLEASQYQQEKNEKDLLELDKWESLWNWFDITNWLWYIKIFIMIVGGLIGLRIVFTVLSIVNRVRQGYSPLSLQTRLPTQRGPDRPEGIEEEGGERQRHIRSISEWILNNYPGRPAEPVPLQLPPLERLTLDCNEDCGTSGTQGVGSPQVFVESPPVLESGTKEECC

Cc1cc(N2C(=O)C(O)=C(C(=O)c3cc4ccccc4o3)C2c2cccc(Br)c2)no1 (stereo not given)
IC50: 16.4 µM (active)

O=C1NC(=S)N(c2ccc(F)cc2)C(=O)/C1=C\c1ccoc1
IC50: 5.78 µM (active)

CCOc1cc(/C=C2/C(=N)N3C(=NC2=O)SN=C3S(C)(=O)=O)ccc1OS(=O)(=O)c1ccccc1
IC50: 12.2 µM (active)

O=C(O)c1cc(-c2ccc(/C=C3\NC(=O)N(c4ccc(Cl)cc4)C3=O)o2)ccc1Cl
IC50: 22.6 µM (active)

O=c1cc(-c2ccccc2Cl)oc2c(NS(=O)(=O)c3cc(Cl)cc(Cl)c3O)ccc(O)c12
IC50: 9.18 µM (active)
